Laboratory results: the supplement of paper PMC12533247

How the values were obtained:
[1] = test system: HSV-1 K26-GFP infected primary human skin cells; experiment: % change of HSV-1 GFP signal vs untreated infected cells; higher = less antiviral inhibition
Experimental: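 2D primary donor-derived keratinocytes (read at 20 hpi) and donor-matched dermal fibroblasts (read at 48 hpi) infected with GFP-HSV-1 K26 at MOI 1 and treated 1 h later with compound dilutions. IncuCyte GFP integrated intensity is normalised by subtracting mock-infected wells and dividing by untreated infected wells, shown as % change (-100 = full inhibition).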

[2] = test system: HSV-1 K26-GFP infected primary human skin cells; experiment: as above; details: cell type: primary dermal fibroblasts, time (h post infection): 48
Experimental: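 2D primary donor-derived dermal fibroblasts infected with GFP-HSV-1 K26 at MOI 1, treated 1 h later with compound dilutions and read at 48 hpi on IncuCyte. GFP integrated intensity is normalised to mock-infected and untreated infected wells (% change; -100 = full inhibition).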

Nc1nc2c(ncn2COCCO)c(=O)[nH]1 [Acyclovir]
% change of HSV-1 GFP signal [%], [1]
Details	0.01 µM	0.03 µM	0.091 µM	0.274 µM	0.823 µM	2.469 µM	7.407 µM	22.222 µM	66.667 µM	200 µM
cell type: primary dermal fibroblasts, donor: 5, time (h post infection): 48	8.25	5.48	-8.89	-35.4	-64.4	-91.6	-98.36	-99.642	-99.73	-99.952
cell type: primary keratinocytes, donor: 3, time (h post infection): 20	4.06	2.08	5.2	11.3	10.1	10.8	5.3	-13.4	-42.3	-69.1
cell type: primary keratinocytes, donor: 4, time (h post infection): 20	3.4	-0.143	2.05	3.28	-0.371	-2.35	-4.48	-27.5	-53.6	-80.5
cell type: primary keratinocytes, donor: 5, time (h post infection): 20	3.43	1.77	4.64	3.64	4.14	5.76	-4.49	-17.7	-45.6	-75.1

% change of HSV-1 GFP signal [%], [2]
Details	0.01 µM	0.03 µM	0.091 µM	0.274 µM	0.823 µM	2.469 µM	7.407 µM	22.222 µM	66.667 µM	200 µM
donor: 3	11.2	-4.39	-24.2	-53.8	-81.8	-96	-98.87	-99.69	-99.875	-99.88
donor: 4	-5.12	-10.6	-29.8	-54.4	-78.2	-94	-98.8	-99.862	-99.93	-99.998
